Among the data in patent US20220274947A1, “NOVEL HETEROARYL-TRIAZOLE COMPOUNDS AS PESTICIDES” (Bayer Aktiengesellschaft, priority 2019, published 2022) are pest or weed control and mortality values, retold here.

Assay type in all cases: in vivo
The test system of assay [1] is Rhipicephalus microplus. The assay can be described thus: Rhipicephalus (Boophilus) microplus injection test (BOOPMI Inj). The note with it: 168 h, injection into adult engorged female ticks, egg deposition after 7 days, read-out: activity (efficacy: 100% means all eggs are infertile); for pest or weed control at 0.004 mg: application rate 4 μg/tick; for pest or weed control at 0.02 mg: application rate 20 μg/tick. Summed up:
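Compound in DMSO, 1 μL, injected abdominally into five adult engorged females, which were then held in a climate chamber. Read-out is egg fertility, scored from deposition at 7 days, with unclear eggs followed to hatching (~42 days); 0% means all eggs fertile, 100% all infertile.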

Assay [2] deals with Rhipicephalus microplus. The assay can be described thus: Rhipicephalus (Boophilus) microplus in-vitro contact test, larval cattle tick, strain Parkhurst (BOOPMI Cont). The note with it: application rate 5 μg/cm^2 (=500 g/ha), tick larvae, after 48 hours, read-out: activity (efficacy: 100% means all larvae are dead or moribund). Summed up: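 After 48 h at 27° C. and 85% humidity, percent dead or moribund larvae was scored from negative geotactic behaviour. Larvae (20-50, Parkhurst strain, synthetic pyrethroid-resistant) were exposed in tubes coated with compound from acetone, 900 ppm corresponding to 5 μg/cm^2.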

The test system of assay [3] is Ctenocephalides felis. Nature of the assay: Ctenocephalides felis in-vitro contact test, adult cat flea (CTECFE Cont). The note with it: application rate 5 μg/cm^2 (=500 g/ha), adult cat fleas, after 48 hours, read-out: activity (efficacy: 100% means all fleas are dead or moribund). Put shortly:
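Efficacy, as percent of fleas dead or moribund, was scored 48 h after adults (5-10 per tube) were placed in glass tubes whose walls carried dried compound at 5 μg/cm^2 (900 ppm solution). Moribund meant failing to climb away from a 45-50° C. hot plate within 5 min.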

In assay [4] the test system is Rhipicephalus sanguineus. The assay can be described thus: Rhipicephalus sanguineus in-vitro contact test, adult brown dog ticks (RHIPSA Cont). Particulars: 48 h, after 48 hours, read-out: activity (efficacy: 100% means all ticks are dead or moribund); for pest or weed control at 5 µg/cm2, 500 g/ha: application rate 5 μg/cm^2 (=500 g/ha); for pest or weed control at 1 µg/cm2, 100 g/ha: application rate 1 μg/cm^2 (=100 g/ha). Put shortly: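 Compound in acetone was coated onto the inner walls of glass tubes and dried by rotation before adult brown dog ticks were exposed. Efficacy was scored at 48 h. Ticks unable to climb away from a 45–50 °C heating plate within 5 min counted as dead or moribund.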

The subject of assay [5] is Diabrotica balteata. Nature of the assay: Diabrotica balteata spray test. The note with it: 168 h, wheat seeds, larvae, after 7 days, read-out: activity (efficacy: 100% means all seedlings have grown up like in the untreated, uninfected control); for pest or weed control at 32 µg/disc, 100 g/ha: application rate 100 g/ha (=32 μg/well); for pest or weed control at 160 µg/disc, 500 g/ha: application rate 500 g/ha (=160 μg/well). Summed up: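 Efficacy (%) was scored 7 days after spraying, with 100% meaning growth like the untreated, uninfected control and 0% meaning no seedling grew. Spray solutions of compound in acetone/DMF with emulsifier-containing water went onto 1-day-germinated wheat seeds, and each unit was then infested with 10-20 banded cucumber beetle larvae.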

The test system of assay [6] is Nezara viridula. The assay can be described thus: Nezara viridula spray test. Particulars: in Hordeum vulgare, 96 h, barley plants, larvae, after 4 days; for mortality at 100 g/ha: application rate 100 g/ha; for mortality at 500 g/ha: application rate 500 g/ha. Put shortly:
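Mortality was read at day 4 (0% = no kill, 100% = total kill) after spraying larva-infested barley plants. Test solutions were made from an acetone/DMF concentrate diluted with water holding 1000 ppm alkylarylpolyglycol ether emulsifier.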

For assay [7], the system named is Spodoptera frugiperda. The assay can be described thus: Spodoptera frugiperda spray test. Particulars: in Zea mays, 168 h, read-out: activity (mortality). Summed up:
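Percent kill of fall armyworm caterpillars was assessed 7 days after infesting dried, treated maize leaf sections. Treatment was a spray of compound in acetone/dimethylformamide, diluted with water containing emulsifier at 1000 ppm.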

For orientation: mortality means the percentage killed. On to `C[C@H](NC(=O)c1cc(C(F)(F)F)cc(C(F)(F)F)c1)c1ncnn1-c1ccc(C(=O)NC2CC2)cn1` [II-37], for which, in assay [1], the pest or weed control at 0.004 mg is 100% and the pest or weed control at 0.02 mg turned out to be 100%. In addition, the pest or weed control at 5 µg/cm2 in assay [2] was 100%. In assay [3], the pest or weed control at 5 µg/cm2 is 100%. The pest or weed control at 5 µg/cm2, 500 g/ha in assay [4] stood at 80%. Moreover, in assay [5], the pest or weed control at 32 µg/disc, 100 g/ha came to 100% and the pest or weed control at 160 µg/disc, 500 g/ha is 100%. For the same molecule, in assay [6], the mortality at 100 g/ha was determined as 90% and the mortality at 500 g/ha was 100%. Besides, in assay [7], the mortality at 100 g/ha worked out at 100% and the mortality at 500 g/ha was 100%.

In the case of `C[C@H](NC(=O)c1cc(C(F)(F)F)cc(C(F)(F)F)c1)c1ncnn1-c1ccc(C(=O)N(C)C2CC2)cn1` [II-38, 6-(5-{(1S)-1-[3,5-bis(trifluoromethyl)benzamido]ethyl}-1H-1,2,4-triazol-1-yl)-N-cyclopropyl-N-methylnicotinamide], in assay [1], the pest or weed control at 0.004 mg is 100% and the pest or weed control at 0.02 mg was 100%. Also, in assay [2], the pest or weed control at 5 µg/cm2 turned out to be 100%. For the same molecule, in assay [3], the pest or weed control at 5 µg/cm2 was 100%. For the same molecule, in assay [4], the pest or weed control at 1 µg/cm2, 100 g/ha was 100% and the pest or weed control at 5 µg/cm2, 500 g/ha worked out at 100%. In assay [5], the pest or weed control at 32 µg/disc, 100 g/ha came out at 100% and the pest or weed control at 160 µg/disc, 500 g/ha is 100%. In assay [6], this molecule gave a mortality at 100 g/ha of 100% and a mortality at 500 g/ha of 100%. Moreover, in assay [7], the mortality at 100 g/ha worked out at 100% and the mortality at 500 g/ha was 100%.

For the molecule `C[C@H](NC(=O)c1cc(C(F)(F)F)cc(C(F)(F)F)c1)c1ncnn1-c1ncc(Cl)s1` [II-40], in assay [1], the pest or weed control at 0.004 mg worked out at 100% and the pest or weed control at 0.02 mg stood at 100%. The pest or weed control at 5 µg/cm2 in assay [2] came to 100%. In assay [3], the pest or weed control at 5 µg/cm2 came to 100%. Moreover, the pest or weed control at 1 µg/cm2, 100 g/ha in assay [4] was 80%. For the same molecule, in assay [5], the pest or weed control at 32 µg/disc, 100 g/ha amounted to 100% and the pest or weed control at 160 µg/disc, 500 g/ha amounted to 100%. In assay [6], this molecule returned a mortality at 100 g/ha of 100% and a mortality at 500 g/ha of 100%. In addition, in assay [7], the mortality at 100 g/ha was found to be 100% and the mortality at 500 g/ha was 100%.

With `Cc1nc([C@H](C)NC(=O)c2cc(Br)cc(OC(F)(F)F)c2)n(-c2ccc(C#N)cn2)n1` [II-47], in assay [1], the pest or weed control at 0.004 mg came out at 100% and the pest or weed control at 0.02 mg was 100%. Also, the pest or weed control at 5 µg/cm2 in assay [2] turned out to be 100%. In assay [3], the pest or weed control at 5 µg/cm2 was 100%. Besides, in assay [4], the pest or weed control at 1 µg/cm2, 100 g/ha worked out at 100% and the pest or weed control at 5 µg/cm2, 500 g/ha came out at 100%. For the same molecule, the pest or weed control at 32 µg/disc, 100 g/ha in assay [5] came out at 100%. In assay [6], the mortality at 100 g/ha was 100% and the mortality at 500 g/ha was found to be 100%. Moreover, in assay [7], the mortality at 100 g/ha was determined as 100%.

Regarding `Cc1nc([C@H](C)NC(=O)c2cc(C#N)cc(C(F)(F)F)c2)n(-c2ccc(C#N)cn2)n1` [II-53], in assay [1], the pest or weed control at 0.004 mg came out at 100% and the pest or weed control at 0.02 mg is 100%. Besides, the pest or weed control at 5 µg/cm2 in assay [2] was 100%. Besides, the pest or weed control at 5 µg/cm2 in assay [3] stood at 100%. In assay [4], the pest or weed control at 1 µg/cm2, 100 g/ha is 80% and the pest or weed control at 5 µg/cm2, 500 g/ha is 100%. The pest or weed control at 32 µg/disc, 100 g/ha in assay [5] is 100%. Also, in assay [6], the mortality at 100 g/ha was 90%. Besides, the mortality at 100 g/ha in assay [7] came to 100%.

For `Cc1nc([C@H](C)NC(=O)c2cc(Cl)cc(C#N)c2)n(-c2ccc(C#N)cn2)n1` [II-61], the pest or weed control at 0.004 mg in assay [1] came to 100%. Further, the pest or weed control at 0.02 mg in assay [1] worked out at 100%. The pest or weed control at 5 µg/cm2 in assay [2] and in assay [3] was 100% each time. Moreover, in assay [4], the pest or weed control at 1 µg/cm2, 100 g/ha worked out at 100%. In addition, the pest or weed control at 5 µg/cm2, 500 g/ha in assay [4] was 100%. Moreover, the pest or weed control at 32 µg/disc, 100 g/ha in assay [5] is 100%. Besides, the mortality at 100 g/ha in assay [6] and in assay [7] was 100% in each case.
